From US7666871B2, “Oxazole derivatives as histamine H3 receptor agents, preparation and therapeutic uses” (Eli Lilly and Company, priority 2004, dated 2010)

Target: T1, human H3R (Homo sapiens, UniProt Q9Y5N1)
T1 construct: expressed in transfected cells; pcDNA3.1(+) vector, G418 selection), membranes
Assay: Histamine H3 Receptor Binding Assay (competitive inhibition SPA, membranes of transfected HEK293 cells)
Conditions: Ki's at the human H3R
Description: The compounds of the present invention can readily be evaluated by using a competitive inhibition Scintillation Proximity Assay (SPA) based on a H3R binding assay using R-[3H] α methylhistamine as ligand. Stable cell lines, including but not limited to HEK can be transfected with cDNA coding for H3R to prepare membranes used for the binding assay. The technique is illustrated below (Preparation of Histamine Receptor Subtype Membranes) for the histamine receptor subtypes.
cDNA for the human histamine 1 receptor (H1R) was cloned into a mammalian expression vector containing the CMV promoter (pcDNA3.1(+), Invitogen) and transfected into HEK293 cells using the FuGENE Tranfection Reagent (Roche Diagnostics Corporation). Transfected cells were selected using G418 (500 μ/mL). Colonies that survived selection were grown and tested for histamine binding to cells grown in 96-well dishes using a scintillation proximity assay (SPA) based radioligand binding assay. Briefly, cells, representing individual selected clones, were grown as confluent monolayers in 96-well dishes (Costar Clear Bottom Plates, #3632) by seeding wells with 25,000 cells and growing for 48 hours (37° C., 5% CO2). […] Plates were counted in a Wallac Trilux 1450 Microbeta scintillation counter. […]
cDNA for the human histamine 3 receptor was cloned and expressed as described in (A. Preparation H1R membranes), above. […]

T1 sequence (Q9Y5N1 whole entry): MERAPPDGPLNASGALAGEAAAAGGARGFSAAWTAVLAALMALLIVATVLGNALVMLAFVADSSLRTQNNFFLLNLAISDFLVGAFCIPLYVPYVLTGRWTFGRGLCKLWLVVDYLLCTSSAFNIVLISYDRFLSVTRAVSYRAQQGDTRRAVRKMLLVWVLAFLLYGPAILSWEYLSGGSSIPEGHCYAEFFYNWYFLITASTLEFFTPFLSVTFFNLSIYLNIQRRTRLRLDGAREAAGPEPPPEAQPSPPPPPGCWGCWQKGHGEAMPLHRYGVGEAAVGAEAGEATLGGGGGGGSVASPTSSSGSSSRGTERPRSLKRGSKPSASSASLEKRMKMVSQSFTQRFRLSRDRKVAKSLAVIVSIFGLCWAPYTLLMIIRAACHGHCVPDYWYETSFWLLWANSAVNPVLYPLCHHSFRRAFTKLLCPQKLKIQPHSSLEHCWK

| SMILES | Ki [nM] |
| --- | --- |
| CS(=O)(=O)Nc1ccc(-c2ccc(-c3nc(CN4CCCC4)co3)cc2)cc1 | 1.6 |
| COC[C@@H]1CCCN1CCc1nc(-c2ccc(-c3cccnc3)cc2)oc1C | 14.3 |
